Assay results taken from ChEMBL document CHEMBL1150644, “Corticatic acids D and E, polyacetylenic geranylgeranyltransferase type I inhibitors, from the marine sponge Petrosia corticata” (J Nat Prod, 2002).
Values after ≈ are worked out from the molar mass of the structure shown.

Experiments:
[1] = Inhibition of Candida albicans GGTase 1 by streptavidin scintillation proximity assay
Candida albicans = assay: Antimicrobial activity against Candida albicans; assay type: functional

For C#C[C@H](O)/C=C/CCCCC/C=C\C/C=C\CCCCCCCCCCC/C=C\C#CC(=O)O [CORTICATIC ACID E], the IC50 [1] was 7.3 µM.

Molecule C#C[C@H](O)/C=C/CCCCCC#C/C=C/C(O)CCCCCCCCCCC/C=C\C#CC(=O)O (some centres undefined) [CORTICATIC ACID D] has an IC50 [1] of 3.3 µM.

In the case of C#CC(O)/C=C/CCCCCC#CC/C=C\CCCCCCCCCCC/C=C\C#CC(=O)O (centres undefined) [CORTICATIC ACID A], the MIC (Candida albicans) is reported as 54 µM (≈ 25.1 µg/mL) and the IC50 [1] is reported as 1.9 µM.
